biological target: GST tagged IRAK-4 (Homo sapiens (Human), UniProt Q9NWZ3); test: IRAK-4 Kinase Assay (IMAP fluorescence polarization); assay type: biochemical; settings: 100 μM ATP, 30 minutes at 25° C.
How it was run: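 Activity was read by IMAP fluorescence polarization, where phosphopeptide binding to M(III) nanoparticles raises FP. The 30-minute, 25° C reaction used 100 μM ATP, 100 nM RP7030 substrate and 0.5 nM GST-IRAK-4 in pH 7.2 Tris buffer with MgCl2, DTT and Tween 20.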

Chain of GST tagged IRAK-4 (Q9NWZ3 whole entry): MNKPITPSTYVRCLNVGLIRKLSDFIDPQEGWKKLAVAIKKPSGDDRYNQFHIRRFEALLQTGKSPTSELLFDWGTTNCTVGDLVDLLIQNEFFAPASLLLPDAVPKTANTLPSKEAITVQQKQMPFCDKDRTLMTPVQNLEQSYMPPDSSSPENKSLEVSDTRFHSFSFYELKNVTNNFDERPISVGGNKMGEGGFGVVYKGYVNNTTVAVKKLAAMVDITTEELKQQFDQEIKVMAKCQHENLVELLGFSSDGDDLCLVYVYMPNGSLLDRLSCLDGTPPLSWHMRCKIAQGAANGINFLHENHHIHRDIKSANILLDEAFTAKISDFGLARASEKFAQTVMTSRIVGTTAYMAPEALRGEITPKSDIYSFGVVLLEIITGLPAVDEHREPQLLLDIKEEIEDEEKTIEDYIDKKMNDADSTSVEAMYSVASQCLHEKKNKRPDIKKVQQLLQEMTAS

SMILES | IC50
Cc1ccc(-n2nc(C3CCN(C4CCC(N(C)S(C)(=O)=O)CC4)CC3)cc2NC(=O)c2cnn3cccnc23)cc1 (stereo not drawn) [Example 251, N-[3-(1-{4-[methyl(methylsulfonyl)amino]cyclohexyl}piperidin-4-yl)-1-(4-methylphenyl)-1H-pyrazol-5-yl]pyrazolo[1,5-a]pyrimidine-3-carboxamide] | < 0.1 µM
Cc1ccc(-n2nc(C3CCN(C4CCC(NS(C)(=O)=O)CC4)CC3)cc2NC(=O)c2cnn3cccnc23)cc1 (stereo not drawn) [Example 252, N-[1-(4-methylphenyl)-3-(1-{4-[(methylsulfonyl)amino]cyclohexyl}piperidin-4-yl)-1H-pyrazol-5-yl]pyrazolo[1,5-a]pyrimidine-3-carboxamide] | < 0.1 µM
Cc1ccc(-n2nc(C3CCN(C4CCC(C#N)CC4)CC3)cc2NC(=O)c2cnn3cccnc23)cc1 (stereo not drawn) [Example 253, N-{3-[1-(4-cyanocyclohexyl)piperidin-4-yl]-1-(4-methylphenyl)-1H-pyrazol-5-yl}pyrazolo[1,5-a]pyrimidine-3-carboxamide] | < 0.1 µM
Cc1ccc(-n2nc(C3CCN(C4CCC5CC54)CC3)cc2NC(=O)c2cnn3cccnc23)cc1 (stereo not drawn) [Example 254, N-[3-(1-bicyclo[3.1.0]hex-2-ylpiperidin-4-yl)-1-(4-methylphenyl)-1H-pyrazol-5-yl]pyrazolo[1,5-a]pyrimidine-3-carboxamide] | < 0.1 µM
Cc1ccc(-n2nc(C3CCN(C4CCC5(CCC(=O)N5)CC4)CC3)cc2NC(=O)c2cnn3cccnc23)cc1 (stereo not drawn) [Example 255, N-{1-(4-methylphenyl)-3-[1-(2-oxo-1-azaspiro[4.5]dec-8-yl)piperidin-4-yl]-1H-pyrazol-5-yl}pyrazolo[1,5-a]pyrimidine-3-carboxamide] | < 0.1 µM
Cc1ccc(-n2nc(C3CCN(C4CC(C(C)(C)C)C4)CC3)cc2NC(=O)c2cnn3cccnc23)cc1 (stereo not drawn) [Example 256, N-{3-[1-(3-tert-butylcyclobutyl)piperidin-4-yl]-1-(4-methylphenyl)-1H-pyrazol-5-yl}pyrazolo[1,5-a]pyrimidine-3-carboxamide] | < 0.1 µM
Cc1ccc(-n2nc(C3CCN(C4CC5(CCCC5)C4)CC3)cc2NC(=O)c2cnn3cccnc23)cc1 [Example 257, N-[1-(4-methylphenyl)-3-(1-spiro[3.4]oct-2-ylpiperidin-4-yl)-1H-pyrazol-5-yl]pyrazolo[1,5-a]pyrimidine-3-carboxamide] | < 0.1 µM
Cc1ccc(-n2nc(C3CCN(C4CC(C#N)C4)CC3)cc2NC(=O)c2cnn3cccnc23)cc1 (stereo not drawn) [Example 258, N-{3-[1-(3-cyanocyclobutyl)piperidin-4-yl]-1-(4-methylphenyl)-1H-pyrazol-5-yl}pyrazolo[1,5-a]pyrimidine-3-carboxamide] | < 0.1 µM

Second part, the molecule after the results:

IC50 | SMILES
< 0.1 µM | Cc1ccc(-n2nc(C3CCN(C4CCC(N(C)S(C)(=O)=O)CC4)CC3)cc2NC(=O)c2cnn3cccnc23)nc1 (stereo not drawn) [Example 262, N-[3-(1-{4-[methyl(methylsulfonyl)amino]cyclohexyl}piperidin-4-yl)-1-(5-methylpyridin-2-yl)-1H-pyrazol-5-yl]pyrazolo[1,5-a]pyrimidine-3-carboxamide]
< 0.1 µM | Cc1ccc(-n2nc(C3CCN(C4CCC(NS(C)(=O)=O)CC4)CC3)cc2NC(=O)c2cnn3cccnc23)nc1 (stereo not drawn) [Example 263, N-[1-(5-methylpyridin-2-yl)-3-(1-{4-[(methylsulfonyl)amino]cyclohexyl]piperidin-4-yl)-1H-pyrazol-5-yl}pyrazolo[1,5-a]pyrimidine-3-carboxamide]
< 0.1 µM | Cc1ccc(-n2nc(C3CCN(C4CCCOC4)CC3)cc2NC(=O)c2cnn3cccnc23)nc1 (stereo not drawn) [Example 264, N-{1-(5-methylpyridin-2-yl)-3-[1-(tetrahydro-2H-pyran-3-yl)piperidin-4-yl]-1H-pyrazol-5-yl}pyrazolo[1,5-a]pyrimidine-3-carboxamide]
< 0.1 µM | Cc1ccc(-n2nc(C3CCN(C4CCC(C#N)CC4)CC3)cc2NC(=O)c2cnn3cccnc23)nc1 (stereo not drawn) [Example 265, N-{3-[1-(4-cyanocyclohexyl)piperidin-4-yl]-1-(5-methylpyridin-2-yl)-1H-pyrazol-5-yl}pyrazolo[1,5-a]pyrimidine-3-carboxamide]
< 0.1 µM | Cc1ccc(-n2nc(C3CCN(C4CCN(c5ccc(F)cc5)C4)CC3)cc2NC(=O)c2cnn3cccnc23)nc1 (stereo not drawn) [Example 266, N-[3-{1-[1-(4-fluorophenyl)pyrrolidin-3-yl]piperidin-4-yl]-1-(5-methylpyridin-2-yl)-1H-pyrazol-5-yl}pyrazolo-[1,5-a]pyrimidine-3-carboxamide]
< 0.1 µM | Cc1ccc(-n2nc(C3CCN(C4CCN(C5CC5)CC4)CC3)cc2NC(=O)c2cnn3cccnc23)nc1 [Example 267, N-[3-(1′-cyclopropyl-1,4′-bipiperidin-4-yl)-1-(5-methylpyridin-2-yl)-1H-pyrazol-5-yl]pyrazolo[1,5-a]pyrimidine-3-carboxamide]
< 0.1 µM | Cc1ccc(-n2nc(C3CCN(C4CCc5ccncc5C4)CC3)cc2NC(=O)c2cnn3cccnc23)nc1 (stereo not drawn) [Example 268, N-{1-(5-methylpyridin-2-yl)-3-[1-(5,6,7,8-tetrahydroisoquinolin-7-yl)piperidin-4-yl]-1H-pyrazol-5-yl}pyrazolo[1,5-a]pyrimidine-3-carboxamide]

same assay, conditions: 100 μM ATP, 30 minutes at 25° C.; μM

SMILES | IC50
Cc1ccc(-n2nc(C3CCN(C4CN(S(=O)(=O)CF)C4)CC3)cc2NC(=O)c2cnn3cccnc23)cc1 [Example 247, N-[3-(1-{1-[(fluoromethyl)sulfonyl]azetidin-3-yl]piperidin-4-yl)-1-(4-methylphenyl)-1H-pyrazol-5-yl}pyrazolo[1,5-a]pyrimidine-3-carboxamide] | < 1 µM
CC(=O)N1CC(N2CCC(c3cc(NC(=O)c4cnn5cccnc45)n(-c4ccc(C)cc4)n3)CC2)C1 [Example 248, N-{3-[1-(1-acetylazetidin-3-yl)piperidin-4-yl]-1-(4-methylphenyl)-1H-pyrazol-5-yl}pyrazolo pyrimidine-3-carboxamide] | < 1 µM
CCC(=O)N1CC(N2CCC(c3cc(NC(=O)c4cnn5cccnc45)n(-c4ccc(C)cc4)n3)CC2)C1 [Example 249, N-{1-(4-methylphenyl)-3-[1-(1-propanoylazetidin-3-yl)piperidin-4-yl]-1H-pyrazol-5-yl}pyrazolo[1,5-a]pyrimidine-3-carboxamide] | < 1 µM

Second part, the molecule after the results:

IC50 | SMILES
< 1 µM | Cc1ccc(-n2nc(C3CCN(C4CCC(F)(F)CC4)CC3)cc2NC(=O)c2cnn3cccnc23)cc1 [Example 259, N-{3-[1-(4,4-difluorocyclohexyl)piperidin-4-yl]-1-(4-methylphenyl)-1H-pyrazol-5-yl}pyrazolo[1,5-a]pyrimidine-3-carboxamide]
< 1 µM | Cc1ccc(-n2nc(C3CCN(C(C)CC(F)(F)F)CC3)cc2NC(=O)c2cnn3cccnc23)cc1 (stereo not drawn) [Example 260, N-{1-(4-methylphenyl)-3-[1-(3,3,3-trifluoro-1-methylpropyl)piperidin-4-yl]-1H-pyrazol-5-yl}pyrazolo[1,5-a]pyrimidine-3-carboxamide]
< 1 µM | Cc1ccc(-n2nc(C3CCN(C4CN(C(=O)OC(C)(C)C)C4)CC3)cc2NC(=O)c2cnn3cccnc23)cc1 [Example 261, tert-butyl 3-(4-{1-(4-methylphenyl)-5-[(pyrazolo[1,5-a]pyrimidin-3-ylcarbonyl)amino]-1H-pyrazol-3-yl}piperidin-1-yl)azetidine-1-carboxylate]

Reference: US9169260B2 (MERCK SHARP & DOHME CORP., priority 2011, dated 2015)
